The test addresses T1, OGDH (Homo sapiens, UniProt Q02218).
T1 construct: endogenous in cells; host or cells: HL-60 (ATCC CCL-240)
T1 sequence (Q02218 41-1023): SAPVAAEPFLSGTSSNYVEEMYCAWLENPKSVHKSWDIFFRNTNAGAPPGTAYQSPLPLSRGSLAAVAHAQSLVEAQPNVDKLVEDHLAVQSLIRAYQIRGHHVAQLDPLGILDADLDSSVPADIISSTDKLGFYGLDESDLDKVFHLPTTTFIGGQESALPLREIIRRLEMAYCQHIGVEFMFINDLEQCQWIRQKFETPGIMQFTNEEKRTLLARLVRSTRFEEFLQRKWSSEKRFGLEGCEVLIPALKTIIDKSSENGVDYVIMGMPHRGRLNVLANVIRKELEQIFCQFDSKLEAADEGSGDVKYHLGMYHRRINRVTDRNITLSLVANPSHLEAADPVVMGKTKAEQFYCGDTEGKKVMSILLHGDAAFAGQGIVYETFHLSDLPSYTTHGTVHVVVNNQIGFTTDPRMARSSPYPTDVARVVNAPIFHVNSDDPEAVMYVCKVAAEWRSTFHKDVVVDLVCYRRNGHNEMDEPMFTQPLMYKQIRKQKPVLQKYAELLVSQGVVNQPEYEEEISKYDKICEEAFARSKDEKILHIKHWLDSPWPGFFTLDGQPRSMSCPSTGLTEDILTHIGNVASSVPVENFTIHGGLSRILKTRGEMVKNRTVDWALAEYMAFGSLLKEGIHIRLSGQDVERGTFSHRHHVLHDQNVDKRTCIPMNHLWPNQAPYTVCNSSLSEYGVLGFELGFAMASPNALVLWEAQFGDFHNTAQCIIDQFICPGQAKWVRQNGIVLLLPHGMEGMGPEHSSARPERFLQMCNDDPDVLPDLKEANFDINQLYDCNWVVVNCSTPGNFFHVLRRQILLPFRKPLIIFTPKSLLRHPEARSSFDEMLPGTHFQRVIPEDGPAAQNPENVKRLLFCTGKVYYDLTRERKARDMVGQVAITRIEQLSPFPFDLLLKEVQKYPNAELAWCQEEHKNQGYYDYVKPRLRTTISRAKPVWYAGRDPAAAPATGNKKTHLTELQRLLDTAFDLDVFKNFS
Nature of the test: TPP-CCR in living HL-60 cells. The class given is cell-based. The source says:
Therefore, we performed TPP with compound concentration range (TPP-CCR) experiments according to published procedures. In brief, after preparing tryptic peptides from the non-denatured protein fractions (used for immunoblotting in the previous sections) applying the SP3 method, the peptides were labeled using TMT10plex, coding for inhibitor concentration, and the samples belonging to a TMT set were combined, offline high-pH fractionated, and analyzed by MS.
HL-60 cells were expanded as described above for CETSA and TPP-TR to 1.25 million cells per milliliter. […] A number of 2.5 million cells in 2 mL of medium were added to each tube and incubated (1 h, 37 °C). After centrifugation (300 rcf, 3 min, r.t.) and removing all of the supernating culture medium, the cells were washed once with 2 mL and once with 0.5 mL PBS (r.t.) by gently resuspending the cells, followed by centrifugation (300 rcf, 3 min, r.t.) and the complete removal of the supernatants.
After transferring the cells from the 2 mL Eppendorf tubes into correspondingly labeled PCR tubes (tube strips) using 100 µL of ice-cold PBS supplemented with protease inhibitors for resuspending the cells, the samples were further processed as described above for CETSA and TPP-TR, however, by applying a single treatment temperature of 51 °C.
For each sample set comprising ten compound concentration range samples, a same volume of the cell extracts containing the fraction of soluble, non-denatured proteins, corresponding to an average of 5 µg total protein, was used for further analysis. The calculated volume was respectively transferred into PCR tubes of a tube strip and supplemented with SDS sample buffer without DTT and bromophenol blue (final concentrations: 7.5% glycerol, 3% SDS, 37.5 mM Tris/HCl pH 7.0) and ddH2O to a final volume of 10 µL, respectively. Reduction and alkylation were performed by addition of 2.5 µL 100 mM dithiothreitol (DTT; incubation: 20 min, 56 °C, 1000 rpm in an Eppendorf ThermoMixer C, covering the tubes with aluminum foil to minimize condensation in the lids) and 3.33 µL 300 mM iodoacetamide (IAA; incubation: 15 min, r.t., in the dark without shaking), as well as 2.5 µL 100 mM DTT (incubation: 15 min, r.t., without shaking; quenching of excess of IAA). […] The beads were collected and washed (3× 200 µL 80% ethanol p.a. in HPLC-MS grade water, 1 × 200 µL acetonitrile (ACN; HPLC gradient grade)) using a device for handling of magnetic particles [patent US20100200405A1]. The ACN of the last washing step was completely removed by aspiration without letting the beads dry out.
Tryptic digest was performed on-bead by resuspending (use of an ultrasound bath may be required) the beads in 20 µL 50 mM TEAB in HPLC-MS grade water containing 0.1 µg Trypsin/Lys-C mix and 16.5 h incubation at 37 °C and 1000 rpm (Eppendorf ThermoMixer C, covering the tubes with aluminum foil to minimize condensation in the lids). Tryptic fragmentation of proteins was optimized by addition of another 0.1 µg of Trypsin/Lys-C mix in 2 µL 50 mM TEAB and 4 h incubation at 37 °C and 1000 rpm. After centrifugation for about 1 min in a table top centrifuge and magnetic concentration and retention of the beads at the inner tube wall, the supernatants containing the peptides were transferred into new PCR tubes (of tube strips) and were stored at −80 °C. The beads were discarded.
Half of the peptide samples (11 µL containing about 2.5 µg peptides) were transferred into new PCR tubes (of tube strips) and allowed to equilibrate to r.t. TMT labeling reagents were reconstituted as described for the TPP-TR samples, and 1 µL each was added to the reconstituted peptides according to the following scheme and homogenized immediately by aspiration and dispensing:
Peptide separation was performed as described above for the analysis of TPP-TR samples. […]

[1] abbreviates: living HL-60 cells, […] °C, TMT-MS.

Molecules are shown by their SMILES.

Turning to `Cc1cnc(Nc2ccc(F)cc2Cl)nc1-c1c[nH]c(C(=O)N[C@H](CO)c2cccc(Cl)c2)c1` [ERK 11e], the Hill slope – broadly, the slope factor of the fitted curve – (TPP-CCR, living cells, OGDH) is 0.43. Besides, under setting [1], the EC50 (in general, the concentration at which the effect is half-maximal) was 417 nM and the “Hill slope (OGDH)” value was 0.43.

The values above are taken from publication PMC9147192, “Small Molecule Arranged Thermal Proximity Coaggregation (smarTPCA)—A Novel Approach to Characterize Protein–Protein Interactions in Living Cells by Similar Isothermal Dose–Responses” (International Journal of Molecular Sciences, 2022).
